From paper PMC3923778 (PLoS Currents, 2014)

Legend:
PDE3 Cat = experiment: IMAP PDE activity assay (Scottish Biomedical); assay type: biochemical; conditions: * Extrapolated value
Procedure: (§1) Studies were conducted at Scottish Biomedical (Scotland, UK)
(§2) Activity against recombinant PDEs (Table 1) was evaluated using the IMAP technology, which is based on high affinity binding of phosphate by immobilized metal coordination complexes on nanoparticles. The binding reagent complexes with phosphate groups on nucleotide monophosphate generated from cyclic nucleotides (cAMP/cGMP) through PDE activity. With fluorescence polarization detection, binding causes a change in the rate of the molecular motion of the phosphate bearing molecule, and results in an increase in the fluorescence polarization value observed for the fluorescent label attached to the substrate.

PDE11A1 (cAMP) = PDE11A1 (cAMP) (Homo sapiens, UniProt Q9HCR9); experiment: IMAP PDE activity assay (Scottish Biomedical); assay type: biochemical; conditions: * Extrapolated value
Chain of PDE11A1 (cAMP) (Q9HCR9 whole entry): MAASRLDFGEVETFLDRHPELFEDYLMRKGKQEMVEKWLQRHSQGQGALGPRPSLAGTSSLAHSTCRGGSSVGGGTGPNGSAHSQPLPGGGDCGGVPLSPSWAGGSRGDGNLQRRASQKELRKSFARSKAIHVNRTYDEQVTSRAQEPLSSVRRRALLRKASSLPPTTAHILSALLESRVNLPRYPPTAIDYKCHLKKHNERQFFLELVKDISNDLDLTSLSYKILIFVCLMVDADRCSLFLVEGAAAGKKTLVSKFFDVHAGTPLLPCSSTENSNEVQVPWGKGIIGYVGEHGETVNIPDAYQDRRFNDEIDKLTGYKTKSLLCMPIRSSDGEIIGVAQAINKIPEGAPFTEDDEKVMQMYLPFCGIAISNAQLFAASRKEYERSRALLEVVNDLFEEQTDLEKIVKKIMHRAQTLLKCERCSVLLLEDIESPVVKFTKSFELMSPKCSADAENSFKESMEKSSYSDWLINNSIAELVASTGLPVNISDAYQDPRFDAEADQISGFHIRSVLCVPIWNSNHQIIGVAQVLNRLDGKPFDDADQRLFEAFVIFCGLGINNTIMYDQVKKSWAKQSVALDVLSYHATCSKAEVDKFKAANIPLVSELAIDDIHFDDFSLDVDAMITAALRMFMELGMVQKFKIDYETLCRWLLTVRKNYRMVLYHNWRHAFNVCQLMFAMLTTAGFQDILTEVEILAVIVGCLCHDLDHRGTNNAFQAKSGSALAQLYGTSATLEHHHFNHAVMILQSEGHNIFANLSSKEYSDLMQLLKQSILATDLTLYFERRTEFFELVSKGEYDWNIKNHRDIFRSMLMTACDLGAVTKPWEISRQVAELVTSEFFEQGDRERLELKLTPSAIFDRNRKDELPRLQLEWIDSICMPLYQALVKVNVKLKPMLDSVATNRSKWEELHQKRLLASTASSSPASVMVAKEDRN
Procedure: as §1, §2

PDE9A2 = PDE9A2 (Homo sapiens, UniProt O76083); experiment: IMAP PDE activity assay (Scottish Biomedical); assay type: biochemical; conditions: * Extrapolated value
Chain of PDE9A2 (O76083 whole entry): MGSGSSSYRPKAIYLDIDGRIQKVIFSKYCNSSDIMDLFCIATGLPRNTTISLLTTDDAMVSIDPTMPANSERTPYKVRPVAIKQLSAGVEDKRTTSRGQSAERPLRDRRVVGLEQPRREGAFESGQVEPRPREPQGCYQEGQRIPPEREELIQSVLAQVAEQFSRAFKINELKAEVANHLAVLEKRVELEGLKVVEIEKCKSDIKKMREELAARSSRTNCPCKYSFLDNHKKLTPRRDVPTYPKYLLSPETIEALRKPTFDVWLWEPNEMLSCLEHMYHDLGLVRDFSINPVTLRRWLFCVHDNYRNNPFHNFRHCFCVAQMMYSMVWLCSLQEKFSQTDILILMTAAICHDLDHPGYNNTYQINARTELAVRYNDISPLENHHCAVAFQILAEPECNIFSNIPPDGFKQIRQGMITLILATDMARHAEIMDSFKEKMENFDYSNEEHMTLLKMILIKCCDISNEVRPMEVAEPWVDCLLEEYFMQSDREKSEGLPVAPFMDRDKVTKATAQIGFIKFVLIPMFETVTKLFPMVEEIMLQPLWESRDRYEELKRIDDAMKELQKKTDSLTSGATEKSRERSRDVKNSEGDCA
Procedure: as §1, §2

PDE2A3 = target: T1, PDE2A3 (Homo sapiens, UniProt O00408); experiment: IMAP PDE activity assay (Scottish Biomedical); assay type: biochemical; conditions: recombinant PDE2A3
T1 construct: Scottish Biomedical (contract laboratory)
T1 sequence (O00408 whole entry, species assumed): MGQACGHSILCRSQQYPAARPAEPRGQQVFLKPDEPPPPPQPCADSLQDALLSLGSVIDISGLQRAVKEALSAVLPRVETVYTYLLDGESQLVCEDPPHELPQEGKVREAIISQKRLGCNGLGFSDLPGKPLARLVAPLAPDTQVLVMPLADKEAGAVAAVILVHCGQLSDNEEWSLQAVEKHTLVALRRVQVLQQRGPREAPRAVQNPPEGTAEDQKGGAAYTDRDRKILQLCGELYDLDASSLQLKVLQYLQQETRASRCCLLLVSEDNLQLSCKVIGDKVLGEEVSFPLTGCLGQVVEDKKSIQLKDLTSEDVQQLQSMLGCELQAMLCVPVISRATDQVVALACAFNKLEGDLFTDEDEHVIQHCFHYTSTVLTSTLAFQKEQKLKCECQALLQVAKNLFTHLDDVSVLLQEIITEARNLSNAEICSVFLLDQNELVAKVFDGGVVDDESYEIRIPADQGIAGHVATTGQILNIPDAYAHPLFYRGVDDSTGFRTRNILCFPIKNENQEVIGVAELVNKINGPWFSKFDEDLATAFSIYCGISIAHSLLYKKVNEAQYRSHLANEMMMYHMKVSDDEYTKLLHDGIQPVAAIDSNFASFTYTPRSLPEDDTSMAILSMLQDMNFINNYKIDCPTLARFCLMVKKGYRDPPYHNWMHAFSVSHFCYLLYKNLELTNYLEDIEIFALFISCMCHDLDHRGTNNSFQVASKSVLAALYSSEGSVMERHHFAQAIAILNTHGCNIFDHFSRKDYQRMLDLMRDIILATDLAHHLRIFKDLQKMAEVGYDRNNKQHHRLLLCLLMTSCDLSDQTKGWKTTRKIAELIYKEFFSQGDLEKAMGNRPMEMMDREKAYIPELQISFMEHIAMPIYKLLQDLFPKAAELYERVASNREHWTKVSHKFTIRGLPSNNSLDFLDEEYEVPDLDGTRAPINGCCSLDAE
Procedure: as §1, §2

PDE4 Cat = experiment: IMAP PDE activity assay (Scottish Biomedical); assay type: biochemical
Procedure: as §1, §2

PDE8A1 = target: T2, PDE8A1 (Homo sapiens, UniProt O60658); experiment: IMAP PDE activity assay (Scottish Biomedical); assay type: biochemical; conditions: NI, no inhibition noted at concentrations tested (up to 10 µM at Cerep and up to 100 µM at Scottish Biomedical)
T2 construct: Scottish Biomedical (contract laboratory)
Procedure: as §1, §2

PDE7A1 = target: T3, PDE7A1 (Homo sapiens, UniProt Q13946); experiment: IMAP PDE activity assay (Scottish Biomedical); assay type: biochemical
T3 construct: Scottish Biomedical (contract laboratory)
T3 sequence (Q13946 whole entry, species assumed): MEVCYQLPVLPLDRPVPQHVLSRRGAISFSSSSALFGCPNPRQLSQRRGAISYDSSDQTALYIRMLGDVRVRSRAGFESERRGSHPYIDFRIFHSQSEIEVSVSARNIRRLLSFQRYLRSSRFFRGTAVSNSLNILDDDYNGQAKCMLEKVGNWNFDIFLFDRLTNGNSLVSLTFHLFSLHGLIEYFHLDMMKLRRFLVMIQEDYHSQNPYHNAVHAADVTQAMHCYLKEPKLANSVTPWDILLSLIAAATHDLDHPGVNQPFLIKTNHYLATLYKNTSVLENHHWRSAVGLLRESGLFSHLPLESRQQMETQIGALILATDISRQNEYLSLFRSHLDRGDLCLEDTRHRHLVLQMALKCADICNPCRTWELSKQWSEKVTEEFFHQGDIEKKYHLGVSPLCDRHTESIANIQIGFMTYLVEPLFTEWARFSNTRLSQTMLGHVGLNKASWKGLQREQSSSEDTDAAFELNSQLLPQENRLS
Procedure: as §1, §2

PDE1A3 (cAMP) = target: T4, PDE1A3 (cAMP) (Homo sapiens, UniProt P54750); experiment: IMAP PDE activity assay (Scottish Biomedical); assay type: biochemical; conditions: recombinant PDE1A3 (cAMP)
T4 construct: Scottish Biomedical (contract laboratory)
T4 sequence (P54750 whole entry, species assumed): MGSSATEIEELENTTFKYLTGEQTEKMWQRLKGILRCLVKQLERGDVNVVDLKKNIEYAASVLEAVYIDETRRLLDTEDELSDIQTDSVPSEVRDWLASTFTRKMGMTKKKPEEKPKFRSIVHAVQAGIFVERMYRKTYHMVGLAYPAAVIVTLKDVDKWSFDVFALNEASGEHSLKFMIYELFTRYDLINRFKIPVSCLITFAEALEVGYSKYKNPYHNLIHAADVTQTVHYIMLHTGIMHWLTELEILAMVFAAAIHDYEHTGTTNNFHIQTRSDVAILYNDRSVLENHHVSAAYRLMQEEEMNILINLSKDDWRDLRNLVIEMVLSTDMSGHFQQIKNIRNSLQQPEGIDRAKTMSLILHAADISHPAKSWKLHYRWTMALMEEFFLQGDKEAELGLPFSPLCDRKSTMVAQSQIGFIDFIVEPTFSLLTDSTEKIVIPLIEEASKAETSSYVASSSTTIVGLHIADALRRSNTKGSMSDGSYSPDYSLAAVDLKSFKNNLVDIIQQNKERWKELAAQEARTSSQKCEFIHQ
Procedure: as §1, §2

PDE6AB = target: T5, PDE6AB (Homo sapiens, UniProt P16499+P35913); experiment: IMAP PDE activity assay (Scottish Biomedical); assay type: biochemical; conditions: NI, no inhibition noted at concentrations tested (up to 10 µM at Cerep and up to 100 µM at Scottish Biomedical)
T5 construct: Scottish Biomedical (contract laboratory)
Procedure: as §1, §2

PDE10A1 (cAMP) = PDE10A1 (cAMP) (Homo sapiens, UniProt Q9Y233); experiment: IMAP PDE activity assay (Scottish Biomedical); assay type: biochemical; conditions: * Extrapolated value
Chain of PDE10A1 (cAMP) (Q9Y233 267-1055): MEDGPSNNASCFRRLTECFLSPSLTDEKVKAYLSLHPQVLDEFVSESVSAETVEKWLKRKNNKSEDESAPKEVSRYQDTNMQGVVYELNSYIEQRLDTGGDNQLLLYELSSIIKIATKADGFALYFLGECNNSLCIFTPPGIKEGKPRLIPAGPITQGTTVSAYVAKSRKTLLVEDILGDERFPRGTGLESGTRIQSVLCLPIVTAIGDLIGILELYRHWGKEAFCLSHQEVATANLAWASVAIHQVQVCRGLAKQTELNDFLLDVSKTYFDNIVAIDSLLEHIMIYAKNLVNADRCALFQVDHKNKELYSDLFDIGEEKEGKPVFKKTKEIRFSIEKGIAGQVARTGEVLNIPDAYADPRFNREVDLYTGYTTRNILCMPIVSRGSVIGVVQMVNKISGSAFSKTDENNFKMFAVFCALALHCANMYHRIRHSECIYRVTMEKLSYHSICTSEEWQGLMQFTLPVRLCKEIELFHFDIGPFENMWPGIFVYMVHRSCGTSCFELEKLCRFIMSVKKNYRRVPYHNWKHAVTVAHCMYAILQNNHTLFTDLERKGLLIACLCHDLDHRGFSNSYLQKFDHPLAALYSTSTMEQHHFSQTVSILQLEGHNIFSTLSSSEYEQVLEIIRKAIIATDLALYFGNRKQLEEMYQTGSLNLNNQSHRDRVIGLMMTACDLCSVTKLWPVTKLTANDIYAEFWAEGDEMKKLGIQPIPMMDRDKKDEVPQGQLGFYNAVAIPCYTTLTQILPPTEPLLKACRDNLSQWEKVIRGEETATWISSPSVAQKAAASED
Procedure: as §1, §2

[1] = target: T6, human choline transporter (Homo sapiens, UniProt Q9GZV3); experiment: Cerep diversity panel screen at 10 µM; assay type: binding
T6 construct: Cerep (contract laboratory)
Procedure: (§3) Studies were conducted at Cerep (France)

NK3 receptor = target: T7, NK3 receptor (Homo sapiens, UniProt P29371); experiment: Cerep diversity panel screen at 10 µM; assay type: binding
T7 construct: Cerep (contract laboratory)
T7 sequence (P29371 whole entry, species assumed): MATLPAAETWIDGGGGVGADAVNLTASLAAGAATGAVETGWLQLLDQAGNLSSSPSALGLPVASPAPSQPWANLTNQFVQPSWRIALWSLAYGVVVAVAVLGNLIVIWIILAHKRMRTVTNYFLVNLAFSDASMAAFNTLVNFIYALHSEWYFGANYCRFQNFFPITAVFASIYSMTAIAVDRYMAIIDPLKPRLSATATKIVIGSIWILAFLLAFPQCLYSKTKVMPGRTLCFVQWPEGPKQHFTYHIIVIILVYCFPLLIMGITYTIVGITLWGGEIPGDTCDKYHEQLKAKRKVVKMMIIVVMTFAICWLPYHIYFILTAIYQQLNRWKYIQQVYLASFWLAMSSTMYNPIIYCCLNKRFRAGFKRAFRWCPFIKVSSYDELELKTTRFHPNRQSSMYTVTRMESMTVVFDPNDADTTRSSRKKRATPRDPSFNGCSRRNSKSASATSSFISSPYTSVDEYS
Procedure: as §3

[2] = tested on: site 2 of the Na2+-channel; experiment: Cerep diversity panel screen at 10 µM; assay type: binding
Procedure: as §3

α2-adrenergic receptor = experiment: Cerep diversity panel screen at 10 µM; assay type: binding
Procedure: as §3

PDE9 = tested on: PDE9; design: method as in PMID 9216839, PMID 17697115, PMID 10618442, PMID 8961086, PMID 7581878; conditions: ref [12], [23], [25], [27], [28], read-out: previously reported potencies; cited from earlier work
R6/2 mice = experiment: Rotarod; assay type: in vivo, mouse; conditions: BID, ANOVA
Procedure: Motor function testing including open field and rear climbing tests were commenced at 4 weeks of age and continued at weeks 6, 8 and 12, for grip strength test at age weeks 4 and 12 and for rotarod at age weeks 4, 6 and 8. Compound treatment was started at 4 weeks of age after the baseline behavioral tests.
Mice were tested at age weeks 4, 6 and 8 over 3 consecutive days (Wed, Thu, Fri). Each daily session included a training trial of 5 min at 4 RPM on the rotarod apparatus (AccuScan Instruments, Columbus, USA). One hour later, the animals were tested for 3 consecutive accelerating trials of 6 min with the speed changing from 0 to 40 RPM over 360 seconds and an inter-trial interval at least 30 min. The latency to fall from the rod was recorded. Mice remaining on the rod for more than 360 s were removed and their time scored as 360 sec.
All values are presented as mean ± Standard Error of Mean (SEM), and differences are considered to be statistically significant at the p < 0.05 level. Statistical analysis was performed using StatsDirect statistical software. Differences between group means were analyzed by 1-way-ANOVA followed by Dunnett’s test (comparison to the control (=vehicle treated TG mice) group). The acquisition of the Cued two-choice swim test was analyzed using Fisher’s exact test.

SMILES: CN1C(=O)c2nc(Cc3ccc(C(F)(F)F)cc3)[nH]c2N2C1=N[C@H]1CCC[C@H]12 [SCH-51866, (+)-cis-5,6a,7,8,9,9a-hexahydro-2-[4-[trifluro-methyl]phenylmethyl]-5-methyl-cylopent[4,5]imidazo [2,1-b]purin-4(3H)one]
- IC50 (PDE3 Cat): 17.3 µM
- IC50 (PDE11A1 (cAMP)): 21.9 µM
- IC50 (PDE9A2): 51.3 µM
- IC50 (PDE2A3): 1.32 µM
- IC50 (PDE4 Cat): > 100 µM
- IC50 (PDE8A1): > 100 µM
- IC50 (PDE7A1): > 100 µM
- IC50 (PDE1A3 (cAMP)): 0.07 µM
- IC50 (PDE6AB): > 100 µM
- IC50 (PDE10A1 (cAMP)): 16 µM
- inhibition at 10 µM [1]: 94%
- inhibition at 10 µM (NK3 receptor): 57%
- inhibition [2]: 66%
- inhibition (α2-adrenergic receptor): 88%
- IC50 (PDE9): 44 µM
- Rotarod: p vs Vehicle-treated R6/2 mice (R6/2 mice; Age Week 4, 10 mg/kg p.o.): ANOVA: p=0.458
- Rotarod: p vs Vehicle-treated R6/2 mice (R6/2 mice; Age Week 4, 30 mg/kg p.o.): ANOVA: p=0.458
- Rotarod: p vs Vehicle-treated R6/2 mice (R6/2 mice; Age Week 6, 10 mg/kg p.o.): ANOVA: p=0.262
- Rotarod: p vs Vehicle-treated R6/2 mice (R6/2 mice; Age Week 6, 30 mg/kg p.o.): ANOVA: p=0.262
- Rotarod: p vs Vehicle-treated R6/2 mice (R6/2 mice; Age Week 8, 10 mg/kg p.o.): ANOVA: p=0.171
- Rotarod: p vs Vehicle-treated R6/2 mice (R6/2 mice; Age Week 8, 30 mg/kg p.o.): ANOVA: p=0.171
